These results are taken from publication PMC5291098, “Molecular mutagenesis of ppGpp: turning a RelA activator into an inhibitor” (Scientific Reports, 2017).

Where “and” joins values, the source holds several entries; their conditions need not be identical. Equal entries are not always repeated. Entries after “also recorded” stand apart in the source; their conditions may differ. Where two headings read alike, the source gives them in different places.

Test [1] deals with T1, E. coli RelA (Escherichia coli, UniProt P0AG20).
T1 construct: made in house
T1 sequence (P0AG20 whole entry): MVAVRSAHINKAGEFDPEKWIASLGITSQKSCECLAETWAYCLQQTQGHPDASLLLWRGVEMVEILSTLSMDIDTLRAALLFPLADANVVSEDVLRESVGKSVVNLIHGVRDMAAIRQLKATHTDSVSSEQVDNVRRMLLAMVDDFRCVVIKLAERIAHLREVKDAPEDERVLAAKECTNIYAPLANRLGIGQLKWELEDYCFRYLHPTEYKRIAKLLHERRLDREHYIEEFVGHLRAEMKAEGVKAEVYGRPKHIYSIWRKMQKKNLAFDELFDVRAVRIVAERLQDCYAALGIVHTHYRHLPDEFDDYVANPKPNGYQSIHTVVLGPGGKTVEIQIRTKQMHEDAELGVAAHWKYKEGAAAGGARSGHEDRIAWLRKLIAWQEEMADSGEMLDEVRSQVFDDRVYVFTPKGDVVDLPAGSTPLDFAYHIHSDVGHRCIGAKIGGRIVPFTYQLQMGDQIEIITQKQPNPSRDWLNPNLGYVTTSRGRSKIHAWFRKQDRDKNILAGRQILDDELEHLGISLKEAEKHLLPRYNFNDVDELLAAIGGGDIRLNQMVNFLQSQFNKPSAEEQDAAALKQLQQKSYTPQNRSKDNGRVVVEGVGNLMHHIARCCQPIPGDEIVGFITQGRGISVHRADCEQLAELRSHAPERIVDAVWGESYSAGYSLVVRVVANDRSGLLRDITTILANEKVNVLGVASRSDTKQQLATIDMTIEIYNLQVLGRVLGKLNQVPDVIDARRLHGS
Also on record: method as in PMID 20483622. The note with it: read-out: IC50 / concentration for 50% inhibition of E. coli RelA; in the test tube; cited from earlier work.

Test [2] concerns the target T1, E. coli RelA. Briefly: Inhibition of [3H]GDP to [3H]ppGpp conversion by E. coli RelA activated by vacant 70S ribosomes and 100 μM ppGpp. In kind it is biochemical. The note with it: for IC50: 30 nM RelA, 0.5 μM vacant 70S, 100 μM ppGpp; for nHill (Hill coefficient of the titration fit): Supplementary Table 1, 4-parameter logistic model. Here is the method:
For the initial characterization of compounds, we followed the inhibition of [^3H] GDP conversion to [^3H] ppGpp catalyzed by E. coli RelA in a simplified system in which RelA’s activity was induced by vacant 70S ribosomes and 100 μM of ppGpp[15]. Unlabeled ppGpp was added to reaction mixtures in order to linearize the kinetics of [^3H] ppGpp synthesis due to an activating effect on the RelA enzyme. We used a targeted library of 69 nucleotides belonging to several structural classes: ‘true’ ppGpp analogues; Relacin and its derivatives; pyrrolidine, azetidine, piperidine and acyclic phosphonates. Chemical structures of tested compounds and titrations in the RelA:70S:ppGpp system are presented in Supplementary Table 1.
(§1) Detailed description of experimental procedures can be found in Supplementary Text. Biochemical assays utilize in vitro translation[58] and stringent response[15] systems from E. coli purified components. Experiments were performed in HEPES:Polymix[58] buffer with either 5 (for enzymatically assembled initiation complexes) or 15 mM (for vacant 70 S, as well as non-enzymatically assembled programmed ribosomes) Mg^2+. Expression and purification of E. faecalis RelQ was performed as per Gaca (2015) and colleagues. GTPase and ppGpp synthesis were followed using TLC separation and radiochemical detection of ^3H-labelled nucleotides. Multiple round in vitro transcription assays were performed as per Bernardo et al.[49] with minor modifications. Inhibition efficiency (IC50) was calculated using 4-parameter logistic model (Hill equation) as per Sebaugh[60].
(§2) Thin layer chromatography (TLC) analysis of nucleotide mixtures
(§3) Both EF-G GTPase reaction and ppGpp synthesis by RelA were followed by TLC analysis followed by scintillation counting according to Mechold and colleagues, with modifications1. Time points from the reaction mixtures (5 μl, see below for details) were quenched by addition 4 μl 70% formic acid supplemented with a cold nucleotide standard used for UV-shadowing (10 mM GDP and 10 mM GTP) and spotted on PEI-TLC plates (Macherey-Nagel). TLC was run in buffer, plates dried, cut into sections guided by UV-shadowing and 3H radioactivity was quantified by scintillation counting in Optisafe-3 (Fisher) scintillation cocktail on Perkin Elmer Tricarb 2810TR counter. Conversion of substrate to product was quantified as described in Shyp et al. (2012)2.
Enzymatic assays with E. coli RelA
Screening: all experiments were performed in HEPES:Polymix, Mg2+ of 5 mM, 37 […]
μM ppGpp was pre-incubated at 37° C for 2 min and then reaction started by addition of 1 mM ATP, time points (5 μl) taken, quenched with formic acid and analyzed by TLC. Inhibition efficiency (IC50) was calculated using 4-parameter logistic model (Hill equation) as per Sebaugh (2011)3. […]

The target in test [3] is T2, E. faecalis SAS RelQ (RelQEf) (Enterococcus faecalis, UniProt Q830U9). Description: Inhibition of E. faecalis SAS RelQ ppGpp synthesis. Type of test: biochemical. As to conditions: concentrations up to 1 mM.
T2 sequence (Q830U9 entry or part of it): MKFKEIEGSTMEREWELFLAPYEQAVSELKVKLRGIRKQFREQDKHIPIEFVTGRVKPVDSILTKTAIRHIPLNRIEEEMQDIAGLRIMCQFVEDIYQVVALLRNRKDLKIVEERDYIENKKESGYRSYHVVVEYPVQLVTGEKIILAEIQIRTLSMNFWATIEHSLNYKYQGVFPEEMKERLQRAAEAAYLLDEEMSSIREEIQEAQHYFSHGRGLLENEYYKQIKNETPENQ
From the text: In E. coli, ppGpp is synthesized by the multi-domain RSHs RelA and SpoT, however, numerous single-domain RSHs – Small Alarmone Synthetases (SAS) – are widely distributed across bacterial taxa[3]. […] Therefore we tested the effects of DR-4250, DR-M014 and DR-5163 on RelQEf activity (Supplementary Figure 2).
as §1
RelQ activity0.4 RelQ activity0.4 RelQ activity0.4
Supplementary Figure 2 | Inhibition of E. faecalis SAS RelQ by DR-4250, DR-
M014 and DR-5163 is inefficient. The reaction mixture contains 0.25 µM RelQEf,
300 µM [3H] GDP, 0.5 mg/ml BSA, 100 µM ppGpp, 1 mM ATP in Hepes:Polymix at […]

Another test deals with T3, E. coli EF-G.
T3 construct: made in house
Type of test: biochemical. Here is the method: as §2
as §3, with “(2012)2. […]” for “(2012)2.”
GTPase assays with E. coli EF-G
The reaction mixture contained 0.5 μM 70S, 0.1 μM EF-G, in HEPES:Polymix (25 mM Hepes 7.5/ 1 mM DTT / 5 mM Mg2+) pre-incubated for 2 minutes at 37°C prior to addition of 300 μM [3H]GTP substrate (Hartman), after which time points (5 μl) taken, quenched with formic acid and analyzed by TLC (see above). […]

The test system of the next test is ΔywaCΔyjbM B. subtilis. Briefly: Growth of ΔywaCΔyjbM B. subtilis in valine drop-out S7 medium (functional test for Rel inhibition). Type of test: cell-based, Bacillus subtilis. As to conditions: up to 1 mM (0 to 1000 µM). The source says:
Finally, we tested the three of our most promising inhibitors (DR-4250, DR-M014 and DR-5163) for RSH inhibition in bacterial culture. For this we used the Gram-positive bacterium B. subtilis due to its better uptake of compounds as compared to Gram-negative species such as E. coli[50]. The functional test for RSH inhibition relied on the auxotrophy of (p)ppGpp-deficient (ppGpp^0) B. subtilis for methionine and branched-chain amino acids valine, leucine and isoleucine. The B. subtilis RSH repertoire consists of one multi-domain ribosome-associated enzyme Rel and two SAS, YwaC and YjbM[3][52]. Because the SAS RelQEf is refractory to inhibition by our test compounds (Supplementary Figure 2), we used a B. subtilis strain lacking SASs (ΔywaCΔyjbM), in which the sole source of (p)ppGpp is Rel[53]. Defined S7 medium[54] lacking valine supports the growth of ΔywaCΔyjbM B. subtilis, but not the ppGpp^0 stain (Supplementary Figure 5). […] This is indicative of the test compounds failing to inhibit Rel and thereby rendering the strain phenotypically ppGpp^0 (Supplementary Figure 5). A lack of cellular uptake is a likely explanation. […]
Growth assays with Bacillus subtilis BSB1 wild type strain
SAS deletion and ppGpp0 strain of B. subtilis5 were grown in S7 liquid medium6 except for amino acid requirements, which were met as described elsewhere 7. On 96-well plate, 90 µl of B subtilis starter culture was mixed with 10 µL of compound dilution (in 5 mM Tris pH 7.2) so that final OD600 was 0.025 (l = 1 cm).
Following incubation was without shaking at 37°C and growth was monitored with Tecan Infinite M200 at OD600 (raw OD600 values are reported). B. subtilis starter culture was prepared as follows. Late exponential phase cells in S7, with full set of amino acids, were diluted ≈10-fold in S7 lacking either valine or lysine so that, after addition of 8% DMSO, OD600 was 0.25. Next, cell suspensions were aliquoted, frozen in liquid nitrogen, and stored at -80°C. Just before the experiment, cells were thawed on ice and appropriate amount of media was […]
DywaC DyjbM BSB1 B. subtilis ppGpp0. BSB1 B. subtilis wild type strain as grown on S7 synthetic media8 drop-out media lacking valine which abolishes the growth of ppGpp0 (Drel DywaC DyjbM) strain due to valine auxotrophy (dashed line). […]
inhibit the Rel and render the strain ppGpp0.

Test [4] has as its system T4, E. coli σ70-RNAP holoenzyme.
T4 construct: purchased Epicentre
Briefly: Multiple round in vitro transcription by σ70-RNAP (rrnB P1 and rna1 promoters). Type of test: biochemical, Escherichia coli. The note with it: concentrations up to 5 mM; regardless of presence or absence of 2 μM DksA and 100 μM ppGpp.
Protocol: Next, we tested their effects on RNAP. […] We used multiple round in vitro transcription driven from the rrnB P1, a well-characterized ppGpp/DksA inhibited promoter, as described earlier[49]. The assays were performed in the presence and absence of 2 μM DksA and/or 100 μM ppGpp (Fig. 5a).
Effect of inhibitors on rrnB P1 (−66 to +50) promoter transcription by RNAP. Graphs depicting inhibitor (0, 0.025, 0.05, 0.15, 0.4 and 0.6 mM) titrations performed at 30 °C in T-buffer with 0.5 nM template (σ^70-rrnB P1 promoter (pRLG6214)) and 5 nM σ^70-RNAP, in presence or absence of 100 μM ppGpp and/or 2 μM DksA. Error bars represent standard deviations of linear regression estimates, each experiment was performed at least three times.
The assays were performed as per Bernardo et al. (2006)4 with minor modifications. Reactions were carried out in T-buffer (50 mM Tris-HCl pH 7.5, 100 mM NaCl, 10 mM MgCl2, 1 mM dithiothreitol, 0.1 mM EDTA and 0.275 mg of BSA per ml) at 30°C. Inhibitors were titrated to final concentrations of 0, 0.025, 0.05, 0.15, 0.4 and 0.6 mM. E. coli s 70-RNAP holoenzyme (Epicentre, final concentration 5 nM) and template plasmid DNA containing s70-rrnB P1 promoter, (pRLG6214, final concentration 0.5 nM) was used for all experiments. Before initiation of transcription, E. coli s70-RNAP holoenzyme and T buffer were incubated at 30°C for 5 min. Above mix was added to predispensed mixture of inhibitor and the template plasmid DNA containing s70-rrnB P1 promoter (pRLG6214), incubated for further 20 min to initiate open complex formation. 2.5 µl of a mixture of ATP (ﬁnal concentration 0.5 mM), GTP and CTP (ﬁnal concentration 0.2 mM each), UTP (ﬁnal concentration 0.08 mM) and [a-32P]-UTP (5 µCi at > 3000 Ci/mmol, PerkinElmer) was added to initiate transcription by RNAP. After 7 min, 1 µl heparin (0.125 mg/ml ﬁnal concentration) was added to the reaction mixture to prevent re-initiation and further incubated for 5 min to allow completion of initiated transcripts. Transcription was terminated by addition of formamide loading buffer and samples were electrophoresed on a 7M urea-5% polyacrylamide gel and quantified by phosphorimaging.

Test [5] addresses T2, E. faecalis SAS RelQ (RelQEf). As to conditions: found earlier; cited from earlier work.
The next test deals with Bacillus subtilis. Also on record: method as in PMID 20483622. As to conditions: mM-range concentrations; cited from earlier work.
The test system of test [6] is transcription or translation in E. coli reconstituted systems. Also on record: method as in PMID 7047215. As to conditions: cited from earlier work.
Test [7] addresses 70S initiation complexes programmed with mRNA(MF) (E. coli) (UniProt P0AG67). Description: co-sedimentation; spin-down assay: 2 uM RelA, 1 uM 70S initiation complexes programmed with mRNA(MF), with or without 3 uM deacylated tRNA-Phe and 500 uM DR-4250 or DR-M014; 37 C for 15 min; 30% sucrose cushion, 70,000 r.p.m., 25 min, 12 C; pellets on 10% SDS-PAGE; the stoichiometry is told for the sample with A-site deacylated tRNA-Phe.

Setting [8] is: 0.3 mM [3H]GDP, 1 mM ATP, read-out: IC50.

Usually stoichiometry N stands for a count of units in the complex or per binding partner.

Escherichia coli RelA, sequence (P0AG20 whole entry): as the sequence (P0AG20 whole entry) above

As for `Nc1nc2c(ncn2[C@H]2C[C@H](OP(=O)(O)CP(=O)(O)O)[C@@H](COP(=O)(O)CP(=O)(O)O)O2)c(=O)[nH]1` [(10), 2′-deoxyguanosine-3′-5′-di(methylene bisphosphonate)], the IC50 at E. coli RelA [1] is ~1000 µM and 1000 µM.
As to `Nc1nc2c(ncn2CCNC(=O)P(=O)(O)O)c(=O)[nH]1` [DR-5163], the IC50 on E. coli RelA [2] (setting [8]) amounted to 0.245 ± 0.039 mM; at E. coli RelA [2] (5 mM Mg2+, 37 °C, no unit beside the value, titration axis in mM, read-out: IC50 (Supplementary Table 1, example titration)), 0.25 ± 0.05 mM. On E. coli RelA [2], the “nHill (Hill coefficient of the titration fit)” value (from here on “nHill”) turned out to be 1.3 ± 0.26. Also, in test [3], the “Effect on RelQEf activity (in words)” value is “inefficient; also recorded: almost inactive”. The “Inhibitory effect on EF-G GTPase activity (in words)” value in the test on E. coli EF-G (up to 1 mM) is reported as “no inhibitory effect”. The “Effect on growth of ΔywaCΔyjbM B. subtilis (in words)” value in the test on ΔywaCΔyjbM B. subtilis is “did not affect bacterial growth; also recorded: does not affect the growth”.
As to `CC(C)C(=O)Nc1nc2c(ncn2[C@H]2C[C@H](OC(=O)NCC(=O)NCC(=O)O)[C@@H](COC(=O)NCC(=O)NCC(=O)O)O2)c(=O)[nH]1` [Relacin, reference compound], at E. coli RelA [2] (setting [8]), the IC50 amounted to 0.84 ± 0.2 mM. For the same compound, the “nHill” value at E. coli RelA [2] amounted to 1.8 ± 0.001. Besides, the “Inhibitory effect on EF-G GTPase activity (in words)” value in the test with E. coli EF-G (up to 5 mM) is given as “no inhibitory effect”. Also, the “Effect on rrnB P1 transcription by RNAP (in words)” value in test [4] was “mild inhibitory effect”. Also, the “Sensitivity of RelQEf to Relacin (in words)” value in test [5] is “virtually insensitive”. Besides, the “Biological effect on Bacillus subtilis (in words)” value in the test with Bacillus subtilis is listed as “has a biological effect”.
For the compound `Nc1ncnc2c1ncn2C1OC(COP(=O)(O)OP(=O)(O)O)C(OP(=O)(O)OP(=O)(O)O)C1O` (stereo not shown) [ppApp], the IC50 at E. coli RelA [2] (setting [8]) is 0.0245 ± 0.0035 mM. Moreover, the “nHill” value on E. coli RelA [2] was determined as 0.7 ± 0.1. For the same compound, the “Activation of RelA's synthetic activity (in words)” value at E. coli RelA [2] (ppGpp up to 100 μM, ppApp 50 µM-1 mM, thio-ppGpp 100 µM (Supplementary Figure 1)) is listed as “do not activate; also recorded: neither ppApp nor 6-thio-ppGpp activate”. In the test on E. coli EF-G (up to 100 μM), the “Inhibitory effect on EF-G GTPase activity (in words)” value is recorded as “no inhibitory effect”. Also, in test [6], the “Inhibitory effect on transcription or translation (in words)” value is “does not have a pronounced inhibitory effect”.
On to “Escherichia coli RelA (from UniProt P0AG20 1-744) (enzyme)”, for which, in test [7], the stoichiometry N was 1.
